Where no end group is shown, it is not given here.
Key:
[1] = target: dipeptidyl peptidase IV (DPP-IV) (Homo sapiens, UniProt P27487); settings: variants with the 8-position alanine replaced, compared with GLP-1 or its fragment; cited from earlier work
STZ rats = assay: Efficacy study by subcutaneous administration in the experimental animal model of type 2 diabetes (STZ rats), blood glucose; format: in vivo, Male Wistar rats; settings: for Blood glucose concentration at 0 hour (mM, mean ± sem): 0 hour (start of experiment, time of injection)
Description: 1) The Experimental Animal Model of Type 2 Diabetes Male Wistar rats of approximately 200 grams were fasted overnight with free access to water. The rats were administered a single dose of streptozotocin (STZ) by intraperitoneal injection (ip) in an amount of 45 mg/Kg. Then, the rats were normally fed and tested for fasting blood glucose. […] 2) Experimental Method Forty-eight rats were randomly divided into 6 groups, with each of 8 rats. […] At 0 hour, the STZ rats were injected subcutaneously with different doses of drugs for test. At 3, 6, and 9 hours, blood samples were taken from the vein of the rats' tail. The blood samples were tested to provide the blood glucose concentrations of the rats.

[2] = test system: patients with type 2 diabetes; settings: after 6 weeks of GLP-1 treatment; cited from earlier work

Sequence of dipeptidyl peptidase IV (DPP-IV) (P27487 whole entry, species assumed, the tested form may be a part): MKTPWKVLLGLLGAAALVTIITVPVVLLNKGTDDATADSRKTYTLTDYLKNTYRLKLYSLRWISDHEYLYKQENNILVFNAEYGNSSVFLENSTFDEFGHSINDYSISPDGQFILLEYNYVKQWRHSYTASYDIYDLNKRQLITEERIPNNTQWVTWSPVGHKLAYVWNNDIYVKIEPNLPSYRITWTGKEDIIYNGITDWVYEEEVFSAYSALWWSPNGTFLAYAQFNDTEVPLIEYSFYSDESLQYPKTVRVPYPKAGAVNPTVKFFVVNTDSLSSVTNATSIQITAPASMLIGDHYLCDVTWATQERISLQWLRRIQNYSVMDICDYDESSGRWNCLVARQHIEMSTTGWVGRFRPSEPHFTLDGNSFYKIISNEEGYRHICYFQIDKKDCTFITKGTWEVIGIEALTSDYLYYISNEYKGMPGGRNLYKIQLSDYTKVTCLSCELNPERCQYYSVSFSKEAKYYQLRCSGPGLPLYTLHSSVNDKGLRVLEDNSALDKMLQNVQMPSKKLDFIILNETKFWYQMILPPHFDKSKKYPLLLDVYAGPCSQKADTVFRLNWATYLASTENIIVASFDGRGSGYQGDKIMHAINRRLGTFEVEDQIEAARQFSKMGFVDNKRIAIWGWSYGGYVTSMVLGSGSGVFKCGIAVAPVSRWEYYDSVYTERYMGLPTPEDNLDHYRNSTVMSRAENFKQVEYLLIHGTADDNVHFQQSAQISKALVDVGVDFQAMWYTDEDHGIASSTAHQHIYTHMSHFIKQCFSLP

Gly^8-GLP-1 (HDEFERHGEGTFTSDVSSYLEGQAAKEFIAWLVKGRG; Glucagon-like peptide 1; UniProt P01275 92-128, looked up, variant A8G) [variant obtained by replacing the 8-position alanine of GLP-1 or a fragment thereof with glycine]
resistance to DPP-IV mediated degradation [1]: increased resistance

Thr^8-GLP-1 (HDEFERHTEGTFTSDVSSYLEGQAAKEFIAWLVKGRG; Glucagon-like peptide 1; UniProt P01275 92-128, looked up, variant A8T) [variant obtained by replacing the 8-position alanine of GLP-1 or a fragment thereof with threonine]
resistance to DPP-IV mediated degradation [1]: increased resistance

His-Gly-Glu-Gly-Thr-Phe-Pro-Ser-Asp-Val-Ser-Ser-Tyr-Leu-Glu-Gly-Gln-Ala-Ala-Lys-Glu-Phe-Ile-Ala-Trp-Leu-Val-Lys-Gly-Arg-NH2 (HGEGTFPSDVSSYLEGQAAKEFIAWLVKGR-NH2) [Gly^8-Pro^13-GLP-1(7-36)NH2, GLP-1 polypeptide with T13P mutation]
Blood glucose concentration at 0 hour (mM, mean ± sem) (STZ rats; 1 μg/kg subcutaneous): 27.4 ± 0.8 mM | Blood glucose concentration at 3 hour (mM, mean ± sem) (STZ rats; 1 μg/kg subcutaneous): 23.4 ± 1.1 mM | Blood glucose concentration at 6 hour (mM, mean ± sem) (STZ rats; 1 μg/kg subcutaneous): 19.5 ± 0.5 mM | Blood glucose concentration at 9 hour (mM, mean ± sem) (STZ rats; 1 μg/kg subcutaneous): 16.3 ± 0.7 mM | Blood glucose concentration at 0 hour (mM, mean ± sem) (STZ rats; 10 μg/kg subcutaneous): 24.0 ± 1.1 mM | Blood glucose concentration at 3 hour (mM, mean ± sem) (STZ rats; 10 μg/kg subcutaneous): 18.5 ± 0.9 mM | Blood glucose concentration at 6 hour (mM, mean ± sem) (STZ rats; 10 μg/kg subcutaneous): 14.5 ± 0.8 mM | Blood glucose concentration at 9 hour (mM, mean ± sem) (STZ rats; 10 μg/kg subcutaneous): 10.5 ± 0.6 mM | blood-glucose lowering effect compared with reference drugs (STZ rats; subcutaneous, comparison from the data of Table 1 (vs Liraglutide P<0.01)): significantly better than that of Liraglutide

^1HDEFERHAEGTFTSDVSSYLEGQAAKEFIAWLVKGRG [GLP-1, Glucagon-like peptide-1, a polypeptide containing 37 amino acids]
average weight loss [2]: 1.9 kg

Ser^8-GLP-1 (HDEFERHSEGTFTSDVSSYLEGQAAKEFIAWLVKGRG; Glucagon-like peptide 1; UniProt P01275 92-128, looked up, variant A8S) [variant obtained by replacing the 8-position alanine of GLP-1 or a fragment thereof with serine]
resistance to DPP-IV mediated degradation [1]: increased resistance

From patent US11141464B2, “GLP-1 polypeptide having GLP-1 receptor agonist activity and use thereof” (Liu Jianning, priority 2018, dated 2021)
